In patent publication US11702427B2 (priority 2018, dated 2023):
pEC50: −log10 of the molar value. Read-outs that look alike come from different tables or passages of the source.

System: HBsAg
Experiment: HBsAg assay: inhibition of HBsAg in HepG2.2.15 cells (CLIA immunoassay of supernatant)
Format: cell-based, hepatitis B virus (HBV)
Conditions: supernatant collected at day 6 after exposure, HBsAg chemiluminescence immunoassay
Protocol: Inhibition of HBsAg was determined in HepG2.2.15 cells. Cells were maintained in culture medium containing 10% fetal calf serum, […], Glutamine, penicillin/streptomycin. Cells were seeded in 96-well collagen-coated plate at a density of 30,000 cells/well. Serially diluted compounds were added to cells next day at the final DMSO concentration of 0.5%. Cells were incubated with compounds for 2-3 days, after which medium was removed. Fresh medium containing compounds was added to cells for additional 3-4 days. At day 6 after exposure of compounds, supernatant was collected, the HBsAg immunoassay (microplate-based chemiluminescence immunoassay kits, CLIA, Autobio Diagnosics Co., Zhengzhou, China, Catalog #CL0310-2) was used to determine the level of HBsAg according to manufactory instruction. Dose-response curves were generated and the EC50 value (effective concentrations that achieved 50% inhibitory effect) were determined using XLfit software. In addition, cells can be seeded at a density of 5,000 cells/well for determination of cell viability in the presence and absence of compounds by using CellTiter-Glo reagent (Promega). Tables 1-3 show EC50 values obtained by the HBsAg assay for selected compounds.

[1] = read-out: sAg EC50, HepG2.2.15 cells
[2] = Hepatitis B virus, HepG2.2.15, 144 h, read-out: sAg EC50, HepG2.2.15 cells

COCCCOc1cc2c(nc1Cl)-c1[nH]c(=O)c(C(=O)O)c(O)c1C(C(C)(C)C)CO2 (single isomer, unassigned) [Example 78, 7-(tert-Butyl)-2-chloro-8-hydroxy-3-(3-methoxypropoxy)-10-oxo-6,7,10,11-tetrahydrooxepino[3,2-b:4,5-b′]dipyridine-9-carboxylicacid]
pEC50 [1]: 5.22

CCc1nc2c(cc1OCCCOC)OCC(C(C)(C)C)c1c-2[nH]c(=O)c(C(=O)O)c1O (single isomer, unassigned) [Example 80, 7-(tert-Butyl)-2-ethyl-8-hydroxy-3-(3-methoxypropoxy)-10-oxo-6,7,10,11-tetrahydrooxepino[3,2-b:4,5-b′]dipyridine-9-carboxylic acid]
pEC50 [1]: 5.15

CCc1nc2c(cc1OCCCOC)OCC(C(C)(C)C)c1c-2[nH]c(=O)c(C(=O)O)c1O (single isomer, unassigned) [Example 81, 7-(tert-Butyl)-2-ethyl-8-hydroxy-3-(3-methoxypropoxy)-10-oxo-6,7,10,11-tetrahydrooxepino[3,2-b:4,5-b′]dipyridine-9-carboxylic acid]
pEC50 [1]: 8.40

COCCCOc1cc2c(nc1C1CC1)-c1[nH]c(=O)c(C(=O)O)c(O)c1C(C(C)(C)C)CO2 (single isomer, unassigned) [Example 82, 7-(tert-Butyl)-2-cyclopropyl-8-hydroxy-3-(3-methoxypropoxy)-10-oxo-6,7,10,11-tetrahydrooxepino[3,2-b:4,5-b′]dipyridine-9-carboxylic acid]
pEC50 [1]: 4.52

COCCCOc1cc2c(nc1C1CC1)-c1[nH]c(=O)c(C(=O)O)c(O)c1C(C(C)(C)C)CO2 (single isomer, unassigned) [Example 83, 7-(tert-Butyl)-2-cyclopropyl-8-hydroxy-3-(3-methoxypropoxy)-10-oxo-6,7,10,11-tetrahydrooxepino[3,2-b:4,5-b′]dipyridine-9-carboxylic acid]
pEC50 [1]: 7.82

COCCCOc1cc2c(nc1OC)-c1[nH]c(=O)c(C(=O)O)c(O)c1C(C(C)(C)C)CO2 (single isomer, unassigned) [Example 85, 7-(tert-Butyl)-8-hydroxy-2-methoxy-3-(3-methoxypropoxy)-10-oxo-6,7,10,11-tetrahydrooxepino[3,2-b:4,5-b′]dipyridine-9-carboxylic acid]
pEC50 [1]: 7.18

COCCCOc1cc2c(nc1OC)-c1[nH]c(=O)c(C(=O)O)c(O)c1C(C(C)(C)C)CO2 (single isomer, unassigned) [Example 86, 7-(tert-Butyl)-8-hydroxy-2-methoxy-3-(3-methoxypropoxy)-10-oxo-6,7,10,11-tetrahydrooxepino[3,2-b:4,5-b′]dipyridine-9-carboxylic acid]
pEC50 [1]: 4.52

COCCCOc1cc2c(cc1OC)-c1[nH]c(=O)c(C(=O)O)cc1C(C)(C(C)C)C2 (stereo not drawn) [Example 6, 5-Isopropyl-9-methoxy-8-(3-methoxypropoxy)-5-methyl-2-oxo-1,6-dihydrobenzo[h]quinoline-3-carboxylic acid]
pEC50 [2]: 7.36

COCCCOc1cc2c(cc1Cl)-c1[nH]c(=O)c(C(=O)O)cc1C(C)(C(C)C)C2 (stereo not drawn) [Example 9, 9-Chloro-5-isopropyl-8-(3-methoxypropoxy)-5-methyl-2-oxo-1,6-dihydrobenzo[h]quinoline-3-carboxylic acid]
pEC50 [2]: 7.51

COCCCOc1cc2c(cc1OC)-c1nc(OC)c(C(=O)O)cc1C(C(C)C)C2 (stereo not drawn) [Example 12, 5-Isopropyl-2,9-dimethoxy-8-(3-methoxypropoxy)-5,6-dihydrobenzo[h]quinoline-3-carboxylicacid]
pEC50 [2]: 5.92

COCCCOc1cc2c(cc1OC)-c1[nH]c(=O)c(C(=O)O)c(O)c1C(C(C)C)C2 (stereo not drawn) [Example 13, 4-Hydroxy-5-isopropyl-9-methoxy-8-(3-methoxypropoxy)-2-oxo-1,2,5,6-tetrahydrobenzo[h]quinoline-3-carboxylicacid]
pEC50 [2]: 8.22

COCCCOc1cc2c(cc1Cl)-c1[nH]c(=O)c(C(=O)O)c(O)c1C(C)(C(C)C)C2 (stereo not drawn) [Example 14, 9-Chloro-4-hydroxy-5-isopropyl-8-(3-methoxypropoxy)-5-methyl-2-oxo-1,2,5,6-tetrahydrobenzo[h]quinoline-3-carboxylic acid]
pEC50 [2]: 7.21
